Test results: patent US20200237871A1, “METHODS FOR MITIGATING LIVER INJURY AND PROMOTING LIVER HYPERTROPHY, REGENERATION AND CELL ENGRAFTMENT IN CONJUNCTION WITH RADIATION AND/OR RADIOMIMETIC TREATMENTS” (Janssen Pharmaceutica NV, priority 2019, published 2020)

What was measured:
cirrhotic mice = experiment: Lobe weight ratio / hypertrophy of non-irradiated lobe in cirrhotic mice after HIR (Example 5); format: in vivo, mouse
Experimental: Male C57BL/6 DPPIV knockout male mice (10-14 weeks) were injected intraperitoneally with carbon tetrachloride (CCl4) twice a week for a minimum of 12 weeks until a maximum of when 5 out of 30 mice perish from the CCl4 injection. Immediately after, the animals were randomly distributed into the experimental groups.
Image-guided external beam irradiation was performed using a small animal radiation research platform (SARRP, Xstrahl Inc., Suwanee, Ga.). Mice were given gastrografin contrast through gavage to improve visualization of the gastrointestinal (GI) tract. […]
The methods were identical to Experiment 4 as described above with the exception that the CCl4 dose was increased to 20% in olive oil over 12 weeks. To evaluate the effect of RWJ-800088+Liver Sinusoidal Endothelial Cells (LSEC), RWJ-800088+Plerixafor (a selective inhibitor of CXCR4 administered pre- and post-irradiation) on radiation induced liver disease as measured by SPECT-CT in cirrhotic mice after single hepatic irradiation (HIR) at 50 Gy. […]
The dosing solution of RWJ-800088 was prepared as described in Experiment 4. […] The number of viral particles and infectious units' ratio was determined by infecting 293 cells at various dilutions, followed by immunocytochemical staining for adenoviral hexons. The infectious titer was calculated from the number of plaques formed per 1,000 viral particles. […]

C57BL6 male mice = experiment: Volume of untreated (non-irradiated) caudate lobe after partial hepatic irradiation (Example 1); format: in vivo, mouse; settings: 50 Gy to median lobe; 300 μg/kg sc 10 minutes after irradiation; one month after HIR; n=4 per group; p-value <0.00932
Experimental: 8-12-week-old C57BL6 male mice were housed in the Institute for Animal Studies at Albert Einstein College of Medicine and fed regular chow. Animals were weighed in the beginning of the experiment and before tissue collection. All experiments were performed to according to protocols approved by Institutional Animal Care and Use Committee at Albert Einstein College of Medicine.
Image-guided external beam irradiation was performed using a small animal radiation research platform (SARRP, Xstrahl Inc., Suwanee, Ga.). Mice were given gastrografin contrast through gavage to improve visualization of the gastrointestinal (GI) tract. After approximately 2 minutes, mice were positioned on a tubular couch and anesthetized with ˜2% Isofluorane (Isothesia, USP) in 2 L/min pure oxygen. A cone-beam computed tomography (CBCT) scan was acquired and a treatment plan irradiating the median lobe and right lobe was generated using the MuriPlan software. To minimize toxicity, irradiation was performed using 2 parallel opposed fields. […]
With fixed physiologic organ size, non-irradiated liver undergoes hypertrophy in effort to compensate for the irradiated atrophic lobe. The volume of the caudate lobe was measured as a non-irradiated lobe in this experiment.

In the case of “methoxypolyethyleneglycol20000-propionyl-L-Isoleucyl-L-Glutamyl-Glycyl-L-Prolyl-L-Threonyl-L-Leucyl-L-Arginyl-L-Glutaminyl-L-2-Naphthylalanyl-L-Leucyl-L-Alanyl-L-Alanyl-L-Arginyl-Sarcosyl-Ne-(methoxypolyethyleneglycol20000-propionyl-L-Isoleucyl-L-Glutamyl-Glycyl-L-Prolyl-L-Threonyl-L-Leucyl-L-Arginyl-L-Glutaminyl-L-2-Naphthyl alanyl-L-Leucyl-L-Alanyl-L-Alanyl-L-Arginyl-Sarcosyl-)-Lysinamide [RWJ-800088]”, the “Average Ratio of Right Lobe to Left Lobe Weight” value (cirrhotic mice; HIR + LSEC transplant (48 hours after HIR) + drug, 4 months post-HIR) is reported as 1.35, the “hypertrophy of the non-irradiated lobe” value (cirrhotic mice; cirrhotic mice, 50 Gy HIR, RWJ-800088 with LSEC transplants) is reported as “increase in hypertrophy” and the “non-irradiated caudate lobe size, HIR+TPOm vs. HIR+saline” value (C57BL6 male mice) is reported as “significant increase”.
